Experimental findings from patent publication US20030139609A1, “Aziridinyl quinone antitumor agents based on indoles and cyclopent[b]indoles” (priority 2001, published 2003) are described below.

Where “and” joins values, the source holds several entries; their conditions need not be identical. Identical values can stand only once.

Data set [1] has as its system 600 bp calf thymus DNA. The data set is described as follows: DNA reductive alkylation by catalytically reduced aziridinyl quinones. Format: biochemical. Conditions: for DNA alkylation percentage: catalytic reduction, anaerobic, pH 7.4 tris buffer, 30° C., 24 h, absorbance at 550 nm. The protocol:
DNA Alkylation Screening of Series 1-9. The extent of DNA reductive alkylation was determined by catalytic reduction of the aziridinyl quinones in the presence of 600 bp calf thymus DNA. Oxidative workup afforded DNA colored blue as a result of the aminoquinone chromophore. […] The anaerobic conditions employed for DNA reductive alkylation assays is not meant to mimic the environment of tumor cells. These conditions do permit an accurate assessment of the structural requirements for DNA alkylation by the hydroquinone species. To be sure, agents incapable of akylating DNA under these ideal conditions will not do so in the typical cellular environment.
Alkylation of DNA by Reduced Indoloquinones. To a mixture of 1-2 mg of sonicated (600 bp) calf thymus DNA in 2.0 mL of 0.05 M of pH 7.4 tris buffer and 2 mg of Pd on carbon was added a five-to-one base pair equivalent amount of the indoloquinone dissolved in 0.5 mL of dimethylsulfoxide. The resulting solution was degassed under argon for 30 min., after which the mixture was purged with H2 for 10 min. The solution was then purged with argon for 10 min. and placed in a 30° C. bath for 24 h. The reaction was opened to the air and the catalyst was removed with a Millex-PF […] syringe filter. The filtrate was adjusted to 0.3 M acetate with a 3 M stock solution of pH 5.1 acetate and then diluted with two volumes of ethanol. The mixture was chilled at −20° C. for 12 h and the DNA pellet collected by centrifuging at 12,000 g for 20 min. The pellet was redissolved in water and then precipitated and centrifuged again. The resulting blue or red pellet was suspended in ethanol, centrifuged, and dried. The dried pellet was weighed and dissolved in 1 mL of double distilled water resulting in a clear colored solution with […]max˜550 nm, □˜750 M^−1 cm^−1. This is the chromophore of the aminoquinone resulting from nucleophile-mediated opening of the aziridine ring. Model 2′-chloroethyl aminoquinones for extinction coefficient determination were prepared by treatment of the indoloquinone with HCl. {Skibo, E. B. and Xing, C., Chemistry and DNA Alkylation Reactions of Aziridinyl Quinones: Development of an Efficient Alkylating Agent of the Phosphate Backbone, Biochemistry, 1998, 37, 15199-15213}.

In data set [2] the target is human DT-diaphorase (from the non-small cell lung NCI-H460 cell line) (Homo sapiens, UniProt P15559). The data set is described as follows: DT-diaphorase substrate kinetics (recombinant enzyme, anaerobic, Lineweaver-Burke). In kind it is biochemical. From the text:
Listed in Tables 1-4 are the human DT-diaphorase kinetic parameters for Series 1-9, along with the DNA alkylation percentages. These parameters include the apparent dissociation constant KM, the apparent maximal velocity VMAX, and the substrate specificity, VMAX/KM. The designation “apparent” refers to the present of productive and nonproductive constants in KM and VMAX. {Fersht, A. R., The Hydrogen Bond in Molecular Recognition Trends, Biochem. Sci., 1987, 12, 301-304} These constants cancel in the ratio VMAX/KM, which is the best parameter to compare substrates. Human DT-diaphorase (from the non-small cell lung NCI-H460 cell line) {Beall, H. D., Mulcahy, R. T., Siegel, D., Traver, R D., Gibson, N. W., and Ross, D., Metabolism of Bioreductive Antitumor Compounds by Purified Rat and Human DT-Diaphorase Cancer Res., 1994, 54, 3196-3201 } was used to obtain these kinetic parameters. This enzyme is the same as that present in other human tissues, cancerous or otherwise.
Kinetics Studies using Recombinant DT-diaphorase. Kinetics studies were carried out in 0.05 M pH 7.4 Tris buffer under anaerobic conditions, employing Thunberg cuvettes. […] To calculate Vmax, the value of □□ must be obtained. □□ was calculated from the initial and final absorbances for complete quinone reduction; all values are between 8000 to 9000 M^−1 cm^−1. […]

Data set [3] relates to NCI-H460 non-small-lung cancer cell line. The data set is described as follows: NCI In Vitro Cell Line Screening, NSC H460 cell line. Format: cell-based. Conditions: for GI50 / CC50: Homo sapiens; for GI50: NCI-H460, concentration for 50% growth inhibition, read-out: Log GI50 NSC H460 (converted); for CC50: NCI-H460, read-out: Log LC50 NSC H460, concentration for 50% cell kill (converted); for Log TGI NSC H460: concentration for total growth inhibition; for Log GI50 NSC H460: concentration for 50% growth inhibition. From the text:
Cytotoxic and Cytostatic Screening of Series 1-9.

For data set [4], the system named is National Cancer Institute 60-cell line. The data set is described as follows: NCI 60-cell line in vitro screen (average cytotoxicity and cancer specificity). Conditions: for Average Log LC50 60-Cell Line: mean over 60 cell lines, ± value measures cancer specificity. The protocol: Cytotoxic and Cytostatic Screening of Series 1-9. […] The cytostatic parameters include GI50 and TGI, which are the concentrations of drug required for 50% growth inhibition and total growth inhibition, respectively. The cytotoxic parameter is the LC50, which is the concentration required for 50% cell kill.
4. […] Cancer specificity is measured from the ± value under the “Average Log LC50 60-Cell Line” heading of Table 5. A ± value greater than 2 indicates a greater than 100-fold higher/lower cytotoxicity in some histological cancer types compared to the mean cytotoxicity.
The DT-diaphorase levels in the National Cancer Institute 60-cell line in vitro screen have been determined and correlated with the cytotoxicity of antitumor agents activated by 2-electron reduction. {Fitzsimmons, S. A., Workman, P., Grever, M., Paull, K., Camalier, R., and Lewis, A. D., Reductase Enzyme Expression Across the National Cancer Institute Tumor Cell Line Panel: Correlation with Sensitivity To Mitomycin C and EO9, J. Natl. Cancer Inst., 1996, 88, 259-69}. Sensitive cancers usually include NSC lung and colon cancers (and to a lesser extent CNS, melanoma, and renal cancers) by virtue of their elevated DT-diaphorase levels.

In data set [5] the test system is B16 melanoma. The data set is described as follows: animal or person. Conditions: T/C at day 25, <40% active; for response vs control in vivo at 2 mg/kg: Mus musculus, B16, 600 h, 2 mg/Kg/Day on days 1, 5, 9, read-out: In vivo T/C (Treated/Control). Format: in vivo. The text has this:
Shown in Tables 6 and 7 are B16 melanoma syngraft assays {Griswold, D. P., Consideration of the Subcutaneously Implanted B16 Melanoma as a Screening Model for Potential Anticancer Agents, Cancer Chemother Reports, 1972, 3, 315-324} of some members of Series 1-9, as well as related compounds previously reported from this laboratory. {Xing, C. G., Wu, P., Skibo, E. B., and Dorr, R. T., Design of cancer-specific antitumor agents based on aziridlinylcyclopent[b]indoloquinones, J. Med. Chem., 2000, 43, 457-466}. Each agent was evaluated at three doses in C57/bl mice: 2, 3 or 5 mg/kg/day, on days 1, 5, and 9 after subcutaneous tumor implantation of 10^5 cells in the front flank on day 0. “Toxic” means that there was early lethality, or ≧50% lethality prior to any deaths in the control group. The treated over control values (T/C) were measured at day 25 of the study. A T/C value <40% is considered active.
In vivo Evaluation. The B-16 melanoma in C57/bl mice syngraft model was employed to determine in vivo activity. {Griswold, D. P., Consideration of the Subcutaneously Implanted B16 Melanoma as a Screening Model for Potential Anticancer Agents, Cancer Chemother Reports, 1972, 3, 315-324}. Each agent was evaluated at three doses: 2, 3 or 5 mg/kg/day, on days 1, 5, and 9 after subcutaneous tumor implantation of 10^5 cells in the front flank on day 0. “Toxic” means that there was early lethality, or ≧50% lethality prior to any deaths in the control group. The treated over control values (T/C) were measured at day 25 of the study. A T/C value<40% is considered active. […] The control was obtained with drug-free animals.

Chain of human DT-diaphorase (from the non-small cell lung NCI-H460 cell line) (P15559 whole entry): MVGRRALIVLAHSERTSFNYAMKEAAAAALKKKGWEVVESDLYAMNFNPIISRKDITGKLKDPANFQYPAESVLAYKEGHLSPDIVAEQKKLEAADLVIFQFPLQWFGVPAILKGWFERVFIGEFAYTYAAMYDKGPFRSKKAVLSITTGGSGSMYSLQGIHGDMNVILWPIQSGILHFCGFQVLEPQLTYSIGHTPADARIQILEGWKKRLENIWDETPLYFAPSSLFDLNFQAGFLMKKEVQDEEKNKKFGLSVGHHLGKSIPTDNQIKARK

The molecule `CC(=O)OC1CCc2c1[nH]c1c2C(=O)C(N2CC2)=CC1=O` (stereo not shown) [Compound 1b, 3-Acetoxy-7-aziridinyl-1,2,3,4-tetrahydrocyclopent[b]indole-5,8-dione] came in with a melting point of 165 °C. This molecule had a DNA alkylation percentage in data set [1] of 34%.

Turning to `CC(=O)OC1CCc2c3c(n(C(C)=O)c21)C(=O)C=C(N1CC1)C3=O` (stereo not shown) [Compound 1c, 7-Aziridinyl-3-acetoxy-4-acetyl-1,2,3,4-tetrahydrocyclopent[b]indole-5,8-dione], the melting point came out at 140 °C.

As for `CC(=O)OC1CCc2c1[nH]c1c2C(=O)C(N2CC2)=C(C)C1=O` (stereo not shown) [Compound 2b, 3-Acetoxy-7-aziridinyl-6-methyl-1,2,3,4-tetrahydrocyclopent[b]indole-5,8-dione], the melting point is 165 °C. The molecule also gave a DNA alkylation percentage in data set [1] of 21%.

Molecule `CC(=O)OC1CCc2c3c(n(C(C)=O)c21)C(=O)C(C)=C(N1CC1)C3=O` (stereo not shown) [Compound 2c, 7-Aziridinyl-3-acetoxy-4-acetyl-6-methyl-1,2,3,4-tetrahydrocyclopent[b]indole-5,8-dione] had a melting point of 156 °C.

For `CC(=O)OC1CCc2c3c(n(C)c21)C(=O)C(N1CC1)=C(C)C3=O` (stereo not shown) [Compound 5b], the melting point was 157 °C.

As for `CCOC(=O)c1[nH]c2c(c1COC(C)=O)C(=O)C(N1CC1)=CC2=O` [Compound 6d, 3-Acetoxymethyl-5-aziridinyl-2-ethoxycarbonylindole-4,7-dione], the DT-diaphorase specificity in data set [2] turned out to be 0.0072 M⁻¹ s⁻¹. Besides, in data set [1], the “% of DNA bases reductively activated” value stood at 91.2%, the “DNA alkylation (in words)” value was “high DNA alkylation percentages” and the DNA alkylation percentage was 91.2%. In data set [3], the GI50 was 0.0372 µM, the CC50 was 0.603 µM and the “Log TGI NSC H460” value is −6.77. In data set [4], the “± value of Average Log LC50 60-Cell Line” value was about 1 and the “Average Log LC50 60-Cell Line” value is −5.62 ± 1.05.

For the molecule `CC1=C(N2CC2)C(=O)c2c([nH]c(CO)c2CO)C1=O` [Compound 7a, 5-Aziridinyl-2,3-di(hydroxymethyl)-6-methylindole-4,7-dione], the DNA alkylation percentage in data set [1] is reported as 2%. Also, in data set [3], the 50% growth inhibitory concentration (GI50) is 0.01 µM, the CC50 is 1.17 µM and the “Log TGI NSC H460” value is given as −7.49. Also, in data set [4], the “cytostatic/cytotoxic activity versus histological cancer type (in words)” value is “significant cytotoxic and cytostatic properties”; the “Average Log LC50 60-Cell Line” value is listed as −5.54 ± 1.89. Besides, the “In vivo T/C (Treated/Control)” value in data set [5] (3 mg/Kg/Day on days 1, 5, 9) is listed as “Toxic (“Toxic” means ≧ 50% lethality before any control growth deaths)”. Also, the “In vivo T/C (Treated/Control)” value in data set [5] (5 mg/Kg/Day on days 1, 5, 9) is listed as “Toxic (“Toxic” means ≧ 50% lethality before any control growth deaths)”. For the same molecule, the response vs control in vivo at 2 mg/kg in data set [5] amounted to 36%.

Take `CC1=C(N2CC2)C(=O)c2c(CO)c(CO)n(C)c2C1=O` [Compound 7c, 5-Aziridinyl-2,3-di(hydroxymethyl)-1,6-dimethylindole-4,7-dione]: the melting point stood at 165 °C. For the same molecule, in data set [1], the “DNA alkylation (in words)” value was “complete loss of DNA alkylation” and the DNA alkylation percentage is reported as 0%.

Turning to `CC(=O)OCc1[nH]c2c(c1COC(C)=O)C(=O)C(C)=C(N1CC1)C2=O` [Compound 8b, 6-Aziridinyl-2,3-di(acetoxymethyl)-5-methylindole-4,7-dione], in data set [1], the “DNA alkylation (in words)” value is listed as “high DNA alkylation percentages” and the DNA alkylation percentage turned out to be 37%. In data set [3], the concentration for 50% growth inhibition (GI50) was 0.0355 µM; the “Log GI50 NSC H460” value is given as −7.63; the “Log TGI NSC H460” value was −6.75 and −6.71. Also, in data set [4], the “Average Log LC50 60-Cell Line” value was −4.52 ± 1.7 and −4.61 ± 2.5. Further, the “In vivo T/C (Treated/Control)” value in data set [5] (3 mg/Kg/Day on days 1, 5, 9) is on record as “Toxic (“Toxic” means ≧ 50% lethality before any control growth deaths)”. Further, the “In vivo T/C (Treated/Control)” value in data set [5] (5 mg/Kg/Day on days 1, 5, 9) is recorded as “Toxic (“Toxic” means ≧ 50% lethality before any control growth deaths)”. Besides, in data set [5], the response vs control in vivo at 2 mg/kg is 74%.

`CC1=C(N2CC2)C(=O)c2c(c(CO)c(CO)n2C)C1=O` [Compound 8c, 6-Aziridinyl-2,3-di(hydroxymethyl)-1,5-dimethylindol-4,7-dione]: in data set [1], the “DNA alkylation (in words)” value is “complete loss of DNA alkylation” and the DNA alkylation percentage turned out to be 0%. In data set [3], the GI50 was 0.0389 µM, the CC50 is 0.955 µM, the “Log GI50 NSC H460” value is recorded as −7.27 and the “Log TGI NSC H460” value was −6.66. Also, the “Log LC50 NSC H460” value in data set [3] (human) was −6.21. Also, in data set [4], the “Average Log LC50 60-Cell Line” value was −4.61 ± 1.64 and −4.67 ± 2.48. Besides, the “In vivo T/C (Treated/Control)” value in data set [5] (5 mg/Kg/Day on days 1, 5, 9) was “Toxic (“Toxic” means ≧ 50% lethality before any control growth deaths)”.

The term melting point denotes the temperature of the solid-liquid transition. What is called GI50 is the concentration that inhibits growth by half.
